Measurements taken from article PMC9240354, “Pharmacokinetics, Pharmacodynamics and Antiviral Efficacy of the MEK Inhibitor Zapnometinib in Animal Models and in Humans” (Frontiers in Pharmacology, 2022).

Assays:
[1] = adverse events in healthy human volunteers (phase 1); assay type: in vivo; details: n = 8
Excerpt: Healthy men and women between 18 and 55 years of age (inclusive), who weighed at least 50 kg with a body mass index (BMI) between 18.0 and 31.0 kg/m^2 (inclusive) were enrolled in this study. Exclusion criteria were clinically significant illnesses, positive urine test for selected drugs of abuse, positive alcohol breath test at screening and upon check-in at the clinical site, positive hepatitis panel (including hepatitis B surface antigen [HBsAg] and anti-hepatitis C virus [HCV] antibodies), and positive screens for human immunodeficiency virus (HIV) antibody. This Phase 1 study was a randomized, double-blind, placebo-controlled study (clinicaltrials.gov: NCT04385420) consisting of two parts. Part 1 was a SAD study with 40 healthy volunteers who were randomized to active or placebo treatment in a 4:1 ratio (4 cohorts with n (Zapnometinib) = 8; n (placebo) = 2 in each cohort). Subjects receiving active treatment were treated with either 100 mg, 300 mg, 600 mg, or 900 mg zapnometinib. Part 2 was a MAD study with 30 healthy volunteers in three cohorts with the same randomization as in the SAD part (3 cohorts with n (Zapnometinib) = 8; n (placebo) = 2 in each cohort). Each subject in the MAD cohorts received doses of zapnometinib of either 100 mg, 300 mg, or 600 mg once daily for seven days, or placebo. The safety assessment in this study included monitoring of adverse events (AEs), clinical laboratory tests, electrocardiograms (ECG), vital signs, and physical examination. The study protocol and its amendments were reviewed by the Commissie voor Medische Ethiek ZNA, Antwerp, Belgium. This study was conducted in accordance with the ethical principles that have their origin in the Declaration of Helsinki and the International Council for Harmonization of Technical Requirements for Pharmaceuticals for Human Use (ICH) Note for Guidance on Good Clinical Practice (GCP) (CPMP/ICH/135/95) and with applicable local requirements.

[2] = pharmacokinetics, summary regardless of species; assay type: in vivo, mice, hamsters, dogs, human; details: regardless of species or formulation
Protocol: Pharmacokinetic analysis of the mouse plasma samples was performed using standard procedures at Prolytic GmbH (Frankfurt, Germany). Hamster plasma samples were analyzed at Synovo GmbH (Tuebingen, Germany) using HPLC MS/MS (Agilent 1260 HPLC with Sciex API4500) with linear response for plasma concentrations between 15 nM and 33 µM (6.1 ng/ml to 13.5 μg/ml). Pharmacokinetic analyses of the dog plasma samples were performed at Pharmascience Inc. (Montreal, Canada) using an HPLC MS/MS method for the determination of zapnometinib plasma concentrations. The validated calibration range for this assay is from 0.6 μg/ml to […] for which all validation requirements were successfully evaluated. Regressions, calibration standard, quality control sample, animal sample result tables, acquisition methods and chromatograms were generated by Applied Biosystems Analyst^TM software, version 1.6.2. Plasma concentrations of zapnometinib of the human samples were determined at SGS Life Sciences (Bioanalysis Department, Wavre, Belgium) using a validated HPLC MS/MS method with a lower limit of quantification of 10 ng/ml for the analyte zapnometinib. Statistical analysis was performed by SGS (demography and safety analyses, exposure, and compliance) using SAS® version 9.4 (SAS Institute Inc., Cary, NC, United States).

clinical = details: both, human, in vivo; for AUC(0-t): healthy volunteers, n = 8
human PBMCs = details: read-out: CC50 cytotoxicity, ref Laure et al., 2020; cited from earlier work
plasma binding = details: stated in discussion, no data shown

O=C(O)c1ccc(F)c(F)c1Nc1ccc(I)cc1Cl [zapnometinib, 2-(2-Chloro-4-Iodophenylamino)-N-3,4-Difluoro benzoic acid]
Abdominal pain ([1]; 100 mg): 0 n (%)
Back pain ([1]; 100 mg): 0 n (%)
Diarrhea ([1]; 100 mg): 0 n (%)
Dizziness ([1]; 100 mg): 0 n (%)
Erythema ([1]; 100 mg): 0 n (%)
Gastrointestinal Disorders ([1]; 100 mg): 0 n (%)
Headache ([1]; 100 mg): 0 n (%)
Hepatic enzyme increase ([1]; 100 mg): 0 n (%)
Infections and Infestations ([1]; 100 mg): 0 n (%)
Investigations ([1]; 100 mg): 0 n (%)
Nasopharyngitis ([1]; 100 mg): 0 n (%)
Neck pain ([1]; 100 mg): 0 n (%)
Nervous System Disorders ([1]; 100 mg): 0 n (%)
Respiratory, thoracic and Mediastinal Disorders ([1]; 100 mg): 0 n (%)
Rhinorrhea ([1]; 100 mg): 0 n (%)
Skin and Subcutaneous Disorders ([1]; 100 mg): 0 n (%)
Throat irritation ([1]; 100 mg): 0 n (%)
Abdominal pain ([1]; 300 mg): 0 n (%)
Back pain ([1]; 300 mg): 1 (12.5) n (%)
Diarrhea ([1]; 300 mg): 0 n (%)
Dizziness ([1]; 300 mg): 0 n (%)
Erythema ([1]; 300 mg): 1 (12.5) n (%)
Gastrointestinal Disorders ([1]; 300 mg): 0 n (%)
Headache ([1]; 300 mg): 3 (37.5) n (%)
Hepatic enzyme increase ([1]; 300 mg): 1 (12.5) n (%)
Infections and Infestations ([1]; 300 mg): 1 (12.5) n (%)
Investigations ([1]; 300 mg): 1 (12.5) n (%)
Nasopharyngitis ([1]; 300 mg): 1 (12.5) n (%)
Neck pain ([1]; 300 mg): 1 (12.5) n (%)
Nervous System Disorders ([1]; 300 mg): 3 (37.5) n (%)
Respiratory, thoracic and Mediastinal Disorders ([1]; 300 mg): 1 (12.5) n (%)
Rhinorrhea ([1]; 300 mg): 1 (12.5) n (%)
Skin and Subcutaneous Disorders ([1]; 300 mg): 1 (12.5) n (%)
Throat irritation ([1]; 300 mg): 0 n (%)
Abdominal pain ([1]; 600 mg): 0 n (%)
Back pain ([1]; 600 mg): 0 n (%)
Diarrhea ([1]; 600 mg): 0 n (%)
Dizziness ([1]; 600 mg): 0 n (%)
Erythema ([1]; 600 mg): 0 n (%)
Gastrointestinal Disorders ([1]; 600 mg): 0 n (%)
Headache ([1]; 600 mg): 1 (12.5) n (%)
Hepatic enzyme increase ([1]; 600 mg): 0 n (%)
Infections and Infestations ([1]; 600 mg): 0 n (%)
Investigations ([1]; 600 mg): 0 n (%)
Nasopharyngitis ([1]; 600 mg): 0 n (%)
Neck pain ([1]; 600 mg): 0 n (%)
Nervous System Disorders ([1]; 600 mg): 1 (12.5) n (%)
Respiratory, thoracic and Mediastinal Disorders ([1]; 600 mg): 0 n (%)
Rhinorrhea ([1]; 600 mg): 0 n (%)
Skin and Subcutaneous Disorders ([1]; 600 mg): 0 n (%)
Throat irritation ([1]; 600 mg): 0 n (%)
Abdominal pain ([1]; 900 mg): 1 (12.5) n (%)
Back pain ([1]; 900 mg): 0 n (%)
Diarrhea ([1]; 900 mg): 1 (12.5) n (%)
Dizziness ([1]; 900 mg): 0 n (%)
Erythema ([1]; 900 mg): 1 (12.5) n (%)
Gastrointestinal Disorders ([1]; 900 mg): 2 (25.0) n (%)
Headache ([1]; 900 mg): 1 (12.5) n (%)
Hepatic enzyme increase ([1]; 900 mg): 0 n (%)
Infections and Infestations ([1]; 900 mg): 0 n (%)
Investigations ([1]; 900 mg): 0 n (%)
Nasopharyngitis ([1]; 900 mg): 0 n (%)
Neck pain ([1]; 900 mg): 0 n (%)
Nervous System Disorders ([1]; 900 mg): 1 (12.5) n (%)
Respiratory, thoracic and Mediastinal Disorders ([1]; 900 mg): 1 (12.5) n (%)
Rhinorrhea ([1]; 900 mg): 0 n (%)
Skin and Subcutaneous Disorders ([1]; 900 mg): 1 (12.5) n (%)
Throat irritation ([1]; 900 mg): 1 (12.5) n (%)
time to maximum plasma concentration (Cmax) [2]: 2 to 4 h
half-life (clinical): 19 h
Cmax (clinical; po, 100 mg): 9000 ± 2000 ng/mL
Tmax (clinical; po, 100 mg): 2 h
half-life (clinical; po, 100 mg): 19.6 ± 5.3 h
AUC(0-t) (clinical; po, 100 mg, AUC0-t, single oral dose 100 mg): 115 ± 10 µg·h/mL
AUC(0-t) (clinical; po, 100 mg, AUC0–24 h, single oral dose 100 mg): 84 ± 9 µg·h/mL
Cmax (clinical; po, 300 mg): 13000 ± 4000 ng/mL
Tmax (clinical; po, 300 mg): 4 h
half-life (clinical; po, 300 mg): 19.8 ± 5.8 h
AUC(0-t) (clinical; po, 300 mg, AUC0-t, single oral dose 300 mg): 241 ± 18 µg·h/mL
AUC(0-t) (clinical; po, 300 mg, AUC0–24 h, single oral dose 300 mg): 157 ± 16 µg·h/mL
Cmax (clinical; po, 600 mg): 35000 ± 7000 ng/mL
Tmax (clinical; po, 600 mg): 4 h
half-life (clinical; po, 600 mg): 21.9 ± 6.8 h
AUC(0-t) (clinical; po, 600 mg, AUC0-t, single oral dose 600 mg): 617 ± 51 µg·h/mL
AUC(0-t) (clinical; po, 600 mg, AUC0–24 h, single oral dose 600 mg): 411 ± 44 µg·h/mL
Cmax (clinical; po, 900 mg): 46000 ± 16000 ng/mL
Tmax (clinical; po, 900 mg): 4 h
half-life (clinical; po, 900 mg): 23.7 ± 8.2 h
AUC(0-t) (clinical; po, 900 mg, AUC0-t, single oral dose 900 mg): 1000 µg·h/mL
AUC(0-t) (clinical; po, 900 mg, AUC0–24 h, single oral dose 900 mg): 629 ± 83 µg·h/mL
CC50 (human PBMCs): 322 µM
plasma binding (plasma binding): high plasma binding
